Melting point data for 88 compounds are collected here from a melting point compilation (Tetko et al.; mined from patent text by program, amines drawn as free bases though some values may be those of a salt).

As usually defined, the melting point is the temperature, or range, at which the solid turns liquid. In the case of `CC(C)(C)OC(=O)N1CC[C@H](c2ccc3c(c2)OCO3)[C@@H](O)C1` (racemic), the melting point turned out to be 112 °C.
The figure for `CS(=O)(=O)c1c[nH]c(=O)c(I)c1` is 273 to 276 °C; for `Cc1cnc2c(c1)CCCC2C(N)=O` (stereo not drawn) it is 104 °C; for `CC(C)(C)c1cc(CCC(=O)NCc2cccc(NC(=N)c3cccs3)c2)cc(C(C)(C)C)c1O` it is 163 to 164 °C.
For `CCCc1nc2c(N)nc3ccc(-c4ccc(NC(C)=O)cc4)cc3c2s1` the value was 251 to 254 °C; for `O=C(Oc1ccc(Cl)cc1)C1CCCc2ccc([N+](=O)[O-])cc21` (stereo not drawn), 108 to 109 °C.
The figure for `N=C(NO)c1ncn2c(C(F)(F)F)cc(-c3ccc(C(F)(F)F)cc3)nc12` is 213 °C; for `N#Cc1ccc2ccc(=O)n(CCN3CCC(N)CC3)c2c1` it is 138 °C; for `C=CCn1c(=O)c2c(nc(/C=C/c3cc(OC)c(OC)c(OC)c3)n2C)n(CC=C)c1=O` it is 189 to 191 °C.
As to `CC(=O)c1nc2cc(Cl)c(OCC(F)(F)F)cc2cc1O`, the melting point fell in the range of 104 to 105 °C.
`CCN(CC)S(=O)(=O)c1ccc2c(c1)C(C(Cl)(Cl)Cl)OC(C(Cl)(Cl)Cl)O2` (stereo not drawn): the melting point lay in the range of 125 to 126 °C.
In turn, `CC(C)(C)c1ccn(-c2ccc(C(=O)N3Cc4cccnc4Nc4ccccc43)c(C(F)(F)F)c2)n1` came in with a melting point of 136 to 140 °C.
`c1ccc(C(CCOc2ccc(CCC3=NCCO3)cc2)(c2ccccc2)c2ccccc2)cc1`: the melting point is 130 to 131 °C.
For `CCOc1cc(C(=CC#N)c2ccc(OC)c([N+](=O)[O-])c2)ccc1OC`, the melting point is 141 to 143 °C.
On to `CN1CCN(c2nn(S(=O)(=O)c3ccccc3)c3ccc(Cl)cc23)CC1`, for which the melting point lay within 145 to 147 °C.
For `O=C(O)Cc1ccn(-c2ccc(F)cc2)c1` the value was 100 to 102 °C; for `Cn1cnc(COc2nn3c(-c4ccc(F)cc4F)nnc3cc2C2(C)CCCCC2)n1`, 156 °C.
On to `CCCC(=O)NC(C)c1nnc(C)[nH]c1=O` (stereo not drawn), for which the melting point lay within 235 to 237 °C.
For `Cc1sc2c(c1C)C(c1ccc(Cl)cc1)=NCc1nnc(C)n1-2` the value was over 250 °C.
For `Cn1c(COc2ccc(CC3SC(=O)NC3=O)cc2)nc2cncnc21` (stereo not drawn) the value was 244 to 246 °C; for `O=C(c1cccc(Br)c1)C(Br)C(Br)c1cccc(Br)c1` (stereo not drawn), 159 to 160 °C.
The figure for `CC(O)(c1nc2ccc([N+](=O)[O-])cc2[nH]1)C(F)(F)F` (stereo not drawn) is 73 to 75 °C; for `O=C(Cc1ccc(Oc2ccccc2)cc1)NC1(C(=O)O)Cc2ccc(-c3ccc(Cl)cc3)cc2C1` (stereo not drawn) it is 227 to 228 °C.
Take `O=C(c1cc([N+](=O)[O-])ccc1Nc1ccncc1)N1CCCCC1`: the melting point fell in the range of 194 to 196 °C.
For `CC(=O)N1C(=O)C(C(=O)Cc2cccs2)c2ccccc21` (stereo not drawn) the value was 136 to 137 °C.
For `CCCCCNc1nc(C)c(C(=O)c2ccc(Cl)c([N+](=O)[O-])c2)s1` the value was 99 to 104 °C; for `CC(C)=C(C(=O)OCc1ccccc1)N1C(=O)C(Br)(Br)C1Br` (stereo not drawn), 68 to 70 °C.
For `CC(C)(C)NS(=O)(=O)c1cccc2c1CSC2=O` the value was 121 to 124 °C; for `C[C@H](NC(=O)c1c[nH]c2ncc(-c3cn(-c4cccc(Cl)c4)cn3)nc12)C(C)(C)C`, 337 to 339 °C; for `CC(=O)c1cc2c(c(CCl)c1O)CCCC2`, 88 to 90 °C.
Regarding `Cc1cc(C=C2SC(=O)NC2=O)ccc1-c1cccc(CN(C)C(=O)OC(C)(C)C)c1`, the melting point turned out to be 156 °C.
The figure for `CC(C)(C)c1cc(SCCC(=O)NC23CC4CC(CC(C4)C2)C3)cc(C(C)(C)C)c1O` is 172 to 174 °C; for `COC(=O)CCC(=O)c1ccc(NC(=O)c2ccc(C)cc2)cc1` it is 192 to 195 °C.
The figure for `CC(C)(C)OC(=O)Nc1cc(N2CCC(OC3CCCCO3)CC2)c(-c2ccc(F)cc2)cc1NC(=O)CC(=O)c1cccc(-n2ccnc2)c1` (racemic) is 129 to 132 °C; for `COc1cc(Nc2nccc(NC3CCCCC3)n2)cc(OC)c1OC` it is 128 °C; for `Cc1ccsc1-c1nc(COc2ccc(CCCn3ccnc3)cc2)co1` it is 72 to 73 °C.
For `CC(C)(C)OC(=O)COc1ccc([N+](=O)[O-])cc1F` the value was 62 to 64 °C; for `CN1CCC(c2c[nH]c3ccc([N+](=O)[O-])cc23)C(F)C1` (stereo not drawn), 105 to 107 °C.
Consider `Cc1cn2cc(NC(=O)c3cc4cc(F)ccc4n3Cc3cccc(F)c3)ccc2n1`, for which the melting point lay in the range of 200 to 203 °C.
The figure for `CC(=O)c1c(-c2ccccc2)oc(-c2ccncc2)c1C` is 108 to 110 °C; for `O=c1c(Br)c(N2CCC(c3ccccc3)CC2)ccn1CC1CC1` it is 150 °C; for `COc1ccccc1C(=O)NCc1cccc2c1CN(C1CCC(=O)NC1=O)C2=O` (stereo not drawn) it is 236 to 238 °C.
`c1ccc2c(c1)Cn1cccc1CN2`: the melting point was 145 to 148 °C.
For `N#Cc1ccc(C(=O)NNc2ccc(NC(=S)Nc3ccccc3)cc2)cc1` the value was 184 to 185 °C; for `Cn1c(-c2ccccn2)cc(O)c(C(=N)c2ccccc2)c1=O`, 242 to 245 °C; for `Cc1cc(O)c(C(=O)CCC(=O)O)cc1Cl`, 181 to 182 °C.
Consider `CCCc1c(OCCCOc2ccc3ccc(OCC(=O)OC)cc3c2C(C)=O)ccc(C(C)=O)c1O`, for which the melting point was 104 to 107 °C.
The figure for `CCCc1c(OCCCCCOc2ccc3c(=O)cc(C(=O)OC)oc3c2CCC)ccc(C(C)=O)c1O` is 86 to 87 °C.
The figure for `NC(C(=O)O)C(=CF)c1c[nH]c2ccc(O)cc12` (stereo not drawn) is over 250 °C; for `O=[N+]([O-])c1cc(C(F)(F)F)cc([N+](=O)[O-])c1Nc1ncc(Cl)cc1Cl` it is 85 to 87 °C.
Take `Nc1ccccc1-c1ncn[nH]1`: the melting point lay within 145 to 148 °C.
The figure for `COC1(NC(=O)c2ccccc2)CC1` is 190 to 191 °C.
The compound `Cc1ccc(SCC(CCC(=O)O)C(=O)O)cc1C` (stereo not drawn) showed a melting point of 96 to 98 °C.
As for `COc1cc(C=Cc2conc2C)cc(Br)c1O`, the melting point lay in the range of 178 to 180 °C.
For `NS(=O)(=O)Oc1ccc(Cl)c(Cl)c1` the value was 121 to 123 °C.
For `C[N+]1([O-])CC(c2ccccn2)C(=O)c2cc(Cl)ccc21` (stereo not drawn) the value was 135 to 137 °C.
The figure for `CN(C)C=Nc1c(Cl)cc(N=Cc2cccc(Br)c2)cc1Cl` is 136 to 138 °C.
For the compound `O=C(NC[C@H]1CN(c2cc(F)c(N3CCC(n4cnnn4)CC3)c(F)c2)C(=O)O1)C1CC1`, the melting point is 162 to 164 °C.
Turning to `O=C(O)c1cc(N2C(=O)CCC2=O)cc([N+](=O)[O-])c1`, the melting point lay within 285 to 290 °C.
For `CC1CC(=O)c2c(ccc(Cl)c2Cl)O1` (stereo not drawn) the value was 135 to 140 °C; for `Cc1ccc(-c2ccc(C(=O)Nc3ccc4cc(CN5CCCC5)cnc4c3C)cc2F)cc1`, 193 to 194 °C.
The compound `CCOC(=O)C(=O)Nc1ccc2cccc([N+](=O)[O-])c2c1[N+](=O)[O-]` came in with a melting point of 233 °C.
The figure for `Nc1c(CC(=O)O)cccc1Oc1ccc(Cl)c(Cl)c1` is 125 to 127 °C; for `Oc1c2c(nn1-c1nc3ccccc3[nH]1)CCc1ccccc1-2` it is 205 to 206 °C; for `CCCc1nc2c(N)nc3cc(OCc4ccccc4C)ccc3c2n1CC(C)C` it is 228 °C.
The figure for `CC(CCCc1ccccc1)c1cc(O)c2c(c1)N1C(=O)CCC1CC2=O` (stereo not drawn) is 127 to 130 °C; for `CCN(CC)C(=O)C(C)(C)n1cc(C)c(-c2ccccc2Cl)n1` it is 73 to 76 °C.
Regarding `O=C(NC(=NCCCCc1cccnc1)NCCCc1c[nH]cn1)c1ccccc1`, the melting point lay in the range of 119 to 120 °C.
The compound `N#CN=C(Nc1cccc(F)c1)NC(NC(=O)c1ccc(Cl)cc1)c1ccsc1` (stereo not drawn) returned a melting point of 166 to 168 °C.
The figure for `CCOc1cscc1C=O` is 42 to 45 °C; for `NC1CSC(c2ccsc2)CNC1=O` (stereo not drawn) it is 190 to 191 °C; for `CC(=O)COc1ccc2c(c1)C(=O)NC(C)(C)O2` it is 125 to 126 °C.
For `O=C1c2ccccc2S(=O)CC1(CO)CO` (stereo not drawn) the value was 108 to 111 °C; for `CCCCOc1nc(N)c2[nH]c(=O)n(CCCCN(CC(C)(C)O)S(=O)(=O)c3cccc(CC(=O)OC)c3)c2n1`, 192 to 193 °C; for `CC1(c2cccc(Cl)c2)OC(C(=O)O)Oc2ccc(Cl)cc21` (stereo not drawn), 131 °C.
Compound `NS(=O)(=O)c1ccc(N2CCN(CCCC3OCCc4ccccc43)CC2)cc1` (racemic) had a melting point of 177 to 178 °C.
The figure for `O=C1CNC(c2cccc(Cl)c2)=NN1` is 228 to 230 °C.
`CCN(CC)c1c(Cl)cc(C(O)CNC(C)(C)C)cc1Cl` (stereo not drawn) registered a melting point of 93 to 96 °C.
For `CCOC(=O)Cc1c(C(=O)OCC)c(C)cn1C` the value was 71 to 72 °C; for `COc1ccc(C(=O)c2cc3c(c(Cl)c2Cl)OC(C(=O)O)C3)cc1` (stereo not drawn), 187 °C; for `CC[C@@H]1O[C@](C#CC2CC2)(C(F)(F)F)c2cc(F)ccc2NC1=O` (relative stereo), 186 °C.
For `COC(=O)C(=O)NCCCCCC1CCSS1` (stereo not drawn) the value was 42 to 43 °C.
In the case of `CN(Cc1ccc2c(Br)c(OCC(=O)O)ccc2c1)C(=O)c1oc2ccccc2c1CCc1ccccc1`, the melting point is 119 to 122 °C.
For `O=C1c2ccccc2COc2ccc(CCOC(c3ccccc3)(c3ccccc3)c3ccccc3)cc21` the value was 132 to 134 °C.
For `COC(=O)C(=C(C)NCC(O)CO)c1ncc([N+](=O)[O-])cc1[N+](=O)[O-]` (stereo not drawn) the value was 128 to 129 °C.
The figure for `O=C1Nc2ccc(Cl)cc2C(C#Cc2ccccc2)(C(F)(F)Cl)O1` (racemic) is 154 to 155 °C; for `CCOC(=O)c1ccccc1N(CC(=O)OC(C)(C)C)C(=O)CN1C(=O)c2ccccc2C1=O` it is 127 °C; for `Cc1cc(-c2ccc(S(C)(=O)=O)cc2)n(-c2ccc(F)cc2)c1Br` it is 158 to 159 °C.
